For data set [1], the target named is rabbit antibodies that recognize specifically the carboxyl terminal tryptophan of ET-1. The data set is described as follows: radioimmunoassay: displacement of [125I]ET-1 binding to the antibodies. The note with it: mean±SEM, n=3-5; 4° C. overnight. On the procedure: Diluted samples (200 μL) obtained from the above enzyme assay are incubated at 4° C. overnight with 25 μL each of [^125I]ET-1 (10,000 cpm/tube) and 1:20,000-fold diluted rabbit antibodies that recognize specifically the carboxyl terminal tryptophan of ET-1. Goat anti-rabbit antibodies coupled to magnetic beads (70 μg) are then added to each tube, and the reaction mixture is further incubated for 30 min at room temperature. The beads are pelleted using a magnetic rack. The supernatant is decanted, and the radioactivity in the pellet is counted in a gamma counter. Total and nonspecific binding are measured in the absence of nonradioactive ET-1 and anti-ET antibodies, respectively.
A general note: Loss of bound radioactivity is the signal in a displacement assay; it reports binding, not function.

Ends that are not written are not given here.

Broadly, the melting point is the temperature of the solid-liquid transition.

Regarding “ET-1: endothelin-1, formed from big ET-1 by ECE; nonradioactive competitor in the radioimmunoassay”, the “IC50 for displacement of [125I]ET-1 binding to the antibodies” value in data set [1] turned out to be 21 ± 2 fmol.

In the case of “big ET-1: Human big ET-1, the ECE substrate used in the enzyme assay (CSCSSLMDKECVYFCHLDIIWVNTPEHVVPYGLGSPRS; ends and bridges not checked; cysteine pairing not given here; UniProt P05305 53-90, looked up)”, in data set [1], the “IC50 for displacement of [125I]ET-1 binding to the antibodies” value is given as 260,000±66,000 fmol.

Turning to `O=C(O)[C@H](Cc1ccc(-c2ccccc2)cc1)NC(=O)C1(NC(=O)[C@@H](S)Cc2ccc(-c3ccccc3)cc2)CCCC1`, the melting point fell in the range of 187 to 189 °C.

As to `CC(C)[C@H](S)C(=O)NC1(C(=O)N[C@@H](Cc2ccc(-c3cccs3)cc2)C(=O)O)CCCC1` (stereo in doubt) [2-{[1-(2-Mercapto-3-methyl-butanoylamino)-cyclopentanecarbonyl]-amino}-3-[4-(thiophen-2-yl)-phenyl]-propionic acid], the melting point was in the range of 179 to 181 °C.

Turning to `CC(C)CC(S)C(=O)NC1(C(=O)NC(Cc2csc3ccccc23)C(=O)O)CCCC1` (stereo not shown) [Example 13(e), 3-Benzo[b]thiophen-3-yl-2-{[1-(2-mercapto4-methyl-pentanoylamino)-cyclopentanecarbonyl]-amino}-propionic acid], the melting point fell in the range of 135 to 137 °C.

On to `CC[C@H](C)C(S)C(=O)NC1(C(=O)N[C@@H](Cc2ccc(-c3ccsc3)cc2)C(=O)O)CCCC1` (stereo in doubt) [2-{[1-(2-Mercapto-3-methyl-pentanoylamino)-cyclopentanecarbonyl]-amino}-3-[4-(thiophen-3-yl)-phenyl]-propionic acid], for which the melting point lay within 99 to 101 °C.

Take `COc1cccc(-c2ccc(CC(NC(=O)C3(NC(=O)[C@@H](S)C(C)C)CCCC3)C(=O)O)cc2)c1` (stereo in doubt) [2-{[1-(2-Mercapto-3-methyl-butanoylamino)-cyclopentanecarbonyl]-amino}-3-(3′-methoxy-biphenyl-4-yl)-propionic acid]: the melting point lay within 159 to 160 °C.

The values are drawn from US6423727B1, “Certain thiol inhibitors of endothelin-converting enzyme” (Novartis AG, priority 1998, dated 2002).
